Where a name gives a salt, the structure may show the parent alone.

Turning to `CN(C)CCNC1=CC(=O)c2sc(C(=O)N3CCN(C(=O)N4CCOCC4)CC3)nc2C1=O` [Example 16, 5-{[2-(dimethylamino)ethyl]amino}-2-{[4-(morpholin-4-ylcarbonyl)piperazin-1-yl]carbonyl}-1,3-benzothiazole-4,7-dione], the melting point was 211 to 212 °C.

In turn, `CN(C)CCNC1=CC(=O)c2sc(C(=O)N3CCN(C(=O)C4CCCO4)CC3)nc2C1=O` (centres unmarked) [Example 20, 5-{[2-(dimethylamino)ethyl]amino}-2-{[4-(tetrahydrofuran-2-ylcarbonyl)piperazin-1-yl]carbonyl}-1,3-benzothiazole-4,7-dione] showed a melting point of 168 to 169 °C. Turning to `CN(C)CCNC1=CC(=O)c2sc(C(=O)NCc3ccccc3)nc2C1=O` [Example 12, N-benzyl-5-{[2-(dimethylamino)ethyl]amino}-4,7-dioxo-4,7-dihydro-1,3-benzothiazole-2-carboxamide], the melting point is 188 to 189 °C. On to `CN(C)CCNC1=CC(=O)c2sc(C(=O)N3CCCC3)nc2C1=O` [Example 22, 5-{[2-(dimethylamino)ethyl]amino}-2-(pyrrolidin-1-ylcarbonyl)-1,3-benzothiazole-4,7-dione], for which the melting point fell in the range of 207 to 208 °C. In turn, `CCNC(=O)c1nc2c(s1)C(=O)C=C(N(C)CCN(C)C)C2=O` [Example 38, 5-[[2-(dimethylamino)ethyl](methyl)amino]-N-ethyl-4,7-dioxo-4,7-dihydro-1,3-benzothiazole-2-carboxamide] returned a melting point of 163 to 164 °C. In the case of `COc1ccc(NC(=O)c2nc3c(s2)C(=O)C=C(NCCN(C)C)C3=O)cc1F` [Example 35, 5-{[2-(dimethylamino)ethyl]amino}-N-(3-fluoro-4-methoxyphenyl)-4,7-dioxo-4,7-dihydro-1,3-benzothiazole-2-carboxamide] it was 199 to 200 °C. For the molecule `CN(C)CCNC1=CC(=O)c2sc(C(=O)N3CCN(S(C)(=O)=O)CC3)nc2C1=O` [Example 19, 5-{[2-(dimethylamino)ethyl]amino}-2-{[4-(methylsulphonyl)piperazin-1-yl]carbonyl}-1,3-benzothiazole-4,7-dione], the melting point fell in the range of 201 to 202 °C. In turn, `CN(C)CCNC1=CC(=O)c2sc(C(=O)Nc3ccc4c(c3)OCO4)nc2C1=O` [Example 26, N-1,3-benzodioxol-5-yl-5-{[2-(dimethylamino)ethyl]amino}-4,7-dioxo-4,7-dihydro-1,3-benzothiazole-2-carboxamide] registered a melting point of 220 to 221 °C. `CN(C)CCNC1=C(Br)C(=O)c2sc(C(=O)N3CCN(C(=O)C4CCCO4)CC3)nc2C1=O` (centres unmarked) [Example 21, 6-bromo-5-{[2-(dimethylamino)ethyl]amino}-2-{[4-(tetrahydrofuran-2-ylcarbonyl)piperazin-1-yl]carbonyl}-1,3-benzothiazole-4,7-dione] came in with a melting point of 161 to 162 °C. Consider `CC(C)CNC(=O)c1nc2c(s1)C(=O)C=C(NCCN(C)C)C2=O` [Example 7, 5-{[2-(dimethylamino)ethyl]amino}-N-isobutyl-4,7-dioxo-4,7-dihydro-1,3-benzothiazole-2-carboxamide], for which the melting point is 163 to 164 °C. For `COc1ccc(C(=O)N2CCN(C(=O)c3nc4c(s3)C(=O)C=C(NCCN(C)C)C4=O)CC2)cc1` [Example 37, 5-{[2-(dimethylamino)ethyl]amino}-2-{[4-(4-methoxybenzoyl)piperazin-1-yl]carbonyl}-1,3-benzothiazole-4,7-dione] the value was 209 to 210 °C.

The molecule `CN(C)CCNC1=CC(=O)c2sc(C(=O)NCCCN3CCCC3=O)nc2C1=O` [Example 5, 5-{[2-(dimethylamino)ethyl]amino}-4,7-dioxo-N-[3-(2-oxopyrrolidin-1-yl)propyl]-4,7-dihydro-1,3-benzothiazole-2-carboxamide] displayed a melting point of 154 to 156 °C. For `CCNC(=O)c1nc2c(s1)C(=O)C=C(NCCN(C)C)C2=O` [Example 24, 5-{[2-(dimethylamino)ethyl]amino}-N-ethyl-4,7-dioxo-4,7-dihydro-1,3-benzothiazole-2-carboxamide] the value was 174 to 175 °C. In the case of `CCNC(=O)c1nc2c(s1)C(=O)C=C(NCCc1ccc(F)cc1)C2=O` [Example 39, N-ethyl-5-{[2-(4-fluorophenyl)ethyl]amino}-4,7-dioxo-4,7-dihydro-1,3-benzothiazole-2-carboxamide] it was 260 to 261 °C; in that of `CN(C)CCNC1=CC(=O)c2sc(C(=O)N3CCOCC3)nc2C1=O` [Example 1, 5-{[2-(dimethylamino)ethyl]amino}-2-(morpholin-4-ylcarbonyl)-1,3-benzothiazole-4,7-dione], 207 to 208 °C; in that of `O=C1C(NCCN2CCCC2)=CC(=O)c2sc(C(=O)N3CCN(C(=O)N4CCOCC4)CC3)nc21` [Example 17, 2-{[4-(morpholin-4-ylcarbonyl)piperazin-1-yl]carbonyl}-5-[(2-pyrrolidin-1-ylethyl)amino]-1,3-benzothiazole-4,7-dione], 193 to 194 °C. On to `COCCN(CCOC)C(=O)c1nc2c(s1)C(=O)C=C(NCCN(C)C)C2=O` [Example 4, 5-{[2-(dimethylamino)ethyl]amino}-N,N-bis(2-methoxyethyl)-4,7-dioxo-4,7-dihydro-1,3-benzothiazole-2-carboxamide], for which the melting point is 92 to 94 °C. In turn, `COc1ccc2c(c1)CCCN2C(=O)c1nc2c(s1)C(=O)C=C(NCCN(C)C)C2=O` [Example 36, 5-{[2-(dimethylamino)ethyl]amino}-2-[(6-methoxy-3,4-dihydroquinolin-1(2H)-yl)carbonyl]-1,3-benzothiazole-4,7-dione] yielded a melting point of 192 to 193 °C. In the case of `CN(C)CCNC1=CC(=O)c2sc(C(=O)NCC3CCCCC3)nc2C1=O` [Example 13, N-(cyclohexylmethyl)-5-{[2-(dimethylamino)ethyl]amino}-4,7-dioxo-4,7-dihydro-1,3-benzothiazole-2-carboxamide] it was 171 to 172 °C; in that of `CN(C)CCNC1=CC(=O)c2nc(C(=O)N3CCCC3)sc2C1=O` [Example 34, 6-{[2-(dimethylamino)ethyl]amino}-2-(pyrrolidin-1-ylcarbonyl)-1,3-benzothiazole-4,7-dione], 224 to 225 °C; in that of `CN(C)CCNC1=CC(=O)c2sc(C(=O)Nc3ccc(F)cc3)nc2C1=O` [Example 33, 5-{[2-(dimethylamino)ethyl]amino}-N-(4-fluorophenyl)-4,7-dioxo-4,7-dihydro-1,3-benzothiazole-2-carboxamide], 208 to 209 °C. In the case of `COc1ccc(NC(=O)c2nc3c(s2)C(=O)C=C(NCCN(C)C)C3=O)cc1` (as salt: methanesulphonate) [Example 18, 5-{[2-(dimethylamino)ethyl]amino}-N-(4-methoxyphenyl)-4,7-dioxo-4,7-dihydro-1,3-benzothiazole-2-carboxamide] it was 207 to 208 °C; in that of `CN(C)CCNC1=CC(=O)c2sc(C(=O)NCCOCCOCCNC(=O)OC(C)(C)C)nc2C1=O` [Example 2, tert-butyl {2-[2-(2-{[(5-{[2-(dimethylamino)ethyl]amino}-4,7-dioxo-4,7-dihydro-1,3-benzothiazol-2-yl)carbonyl]amino}ethoxy)ethoxy]ethyl}carbamate], 55 to 57 °C.

Usually melting point stands for the temperature of the solid-liquid transition.

The values are drawn from patent publication US7795284B2, “4,7-dioxobenzothiazole-2-carboxamide derivatives, their preparation and their therapeutic uses” (Ipsen Pharma S.A.S., priority 2004, dated 2010).
